Measurements published in patent US12077503B2, “Substituted cyclic amides and their use as herbicides” (FMC CORPORATION, priority 2015, dated 2024).

Columns and labels:
Test in all cases: Test C postemergence
Type in all cases: in vivo
Details in all cases: scale 0 to 100, 0 no effect, 100 complete control
[1] = tested on: oat, wild (wild oat, Avena fatua)
Method in brief: (§1)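 Herbicidal effect, applied preemergence to sown seeds or postemergence to 1- to 4-leaf plants, was scored visually 13 to 15 d after application, 0 to 100 versus controls.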

[2] = tested on: corn (Zea mays)
Method in brief: as §1

[3] = tested on: pigweed (Amaranthus retroflexus)
Method in brief: as §1

[4] = tested on: oilseed rape (Brassica napus)
Method in brief: as §1

[5] = tested on: ryegrass, Italian (Italian ryegrass, Lolium multiflorum)
Method in brief: as §1

[6] = tested on: waterhemp (common waterhemp, Amaranthus rudis)
Method in brief: as §1

[7] = tested on: Galium (catchweed bedstraw, Galium aparine)
Method in brief: as §1

[8] = tested on: johnsongrass (Sorghum halepense)
Method in brief: as §1

[9] = tested on: blackgrass (Alopecurus myosuroides)
Method in brief: as §1

[10] = tested on: wheat (winter wheat, Triticum aestivum)
Method in brief: as §1

[11] = tested on: velvetleaf (Abutilon theophrasti)
Method in brief: as §1

[12] = tested on: morningglory (Ipomoea coccinea)
Method in brief: as §1

[13] = tested on: lambsquarters (Chenopodium album)
Method in brief: as §1

[14] = tested on: chickweed (common chickweed, Stellaria media)
Method in brief: as §1

[15] = tested on: ragweed (common ragweed, Ambrosia elatior)
Method in brief: as §1

[16] = tested on: Kochia (Kochia scoparia)
Method in brief: as §1

[17] = tested on: barnyardgrass (Echinochloa crus-galli)
Method in brief: as §1

[18] = tested on: nutsedge, yellow (yellow nutsedge, Cyperus esculentus)
Method in brief: as §1

[19] = tested on: foxtail, giant (giant foxtail, Setaria faberii)
Method in brief: as §1

[20] = tested on: crabgrass, large (large crabgrass, Digitaria sanguinalis)
Method in brief: as §1

## CN1CC(c2ccc(F)c(F)c2)C(C(=O)Nc2ccccc2S(C)(=O)=O)C1=O (centres unmarked) [Compound 640]
[1]; 31 g ai/ha
  Plant response rating, Oat, Wild: 0
[1]; 62 g ai/ha
  Plant response rating, Oat, Wild: 0
[1]; 125 g ai/ha
  Plant response rating, Oat, Wild: 0
[1]; 250 g ai/ha
  Plant response rating, Oat, Wild: 5
[2]; 31 g ai/ha
  Plant response rating, Corn: 0
[2]; 62 g ai/ha
  Plant response rating, Corn: 0
[2]; 125 g ai/ha
  Plant response rating, Corn: 0
[2]; 250 g ai/ha
  Plant response rating, Corn: 0
[3]; 31 g ai/ha
  Plant response rating, Pigweed: 10
[3]; 62 g ai/ha
  Plant response rating, Pigweed: 35
[3]; 125 g ai/ha
  Plant response rating, Pigweed: 35
[3]; 250 g ai/ha
  Plant response rating, Pigweed: 55
[4]; 31 g ai/ha
  Plant response rating, Oilseed Rape: 20
[4]; 62 g ai/ha
  Plant response rating, Oilseed Rape: 15
[4]; 125 g ai/ha
  Plant response rating, Oilseed Rape: 50
[4]; 250 g ai/ha
  Plant response rating, Oilseed Rape: 60
[5]; 31 g ai/ha
  Plant response rating, Ryegrass, Italian: 0
[5]; 62 g ai/ha
  Plant response rating, Ryegrass, Italian: 0
[5]; 125 g ai/ha
  Plant response rating, Ryegrass, Italian: 0
[5]; 250 g ai/ha
  Plant response rating, Ryegrass, Italian: 5
[6]; 31 g ai/ha
  Plant response rating, Waterhemp: 5
[6]; 62 g ai/ha
  Plant response rating, Waterhemp: 20
[6]; 125 g ai/ha
  Plant response rating, Waterhemp: 10
[6]; 250 g ai/ha
  Plant response rating, Waterhemp: 30
[7]; 31 g ai/ha
  Plant response rating, Galium: 50
[7]; 62 g ai/ha
  Plant response rating, Galium: 55
[7]; 125 g ai/ha
  Plant response rating, Galium: 60
[7]; 250 g ai/ha
  Plant response rating, Galium: 65
[8]; 31 g ai/ha
  Plant response rating, Johnsongrass: 0
[8]; 62 g ai/ha
  Plant response rating, Johnsongrass: 0
[8]; 125 g ai/ha
  Plant response rating, Johnsongrass: 0
[8]; 250 g ai/ha
  Plant response rating, Johnsongrass: 0
[9]; 31 g ai/ha
  Plant response rating, Blackgrass: 0
[9]; 62 g ai/ha
  Plant response rating, Blackgrass: 0
[9]; 125 g ai/ha
  Plant response rating, Blackgrass: 0
[9]; 250 g ai/ha
  Plant response rating, Blackgrass: 0
[10]; 31 g ai/ha
  Plant response rating, Wheat: 0
[10]; 62 g ai/ha
  Plant response rating, Wheat: 0
[10]; 125 g ai/ha
  Plant response rating, Wheat: 0
[10]; 250 g ai/ha
  Plant response rating, Wheat: 0
[11]; 31 g ai/ha
  Plant response rating, Velvetleaf: 5
[11]; 62 g ai/ha
  Plant response rating, Velvetleaf: 70
[11]; 125 g ai/ha
  Plant response rating, Velvetleaf: 25
[11]; 250 g ai/ha
  Plant response rating, Velvetleaf: 30
[12]; 31 g ai/ha
  Plant response rating, Morningglory: 35
[12]; 62 g ai/ha
  Plant response rating, Morningglory: 40
[12]; 125 g ai/ha
  Plant response rating, Morningglory: 55
[12]; 250 g ai/ha
  Plant response rating, Morningglory: 40
[13]; 31 g ai/ha
  Plant response rating, Lambsquarters: 30
[13]; 62 g ai/ha
  Plant response rating, Lambsquarters: 20
[13]; 125 g ai/ha
  Plant response rating, Lambsquarters: 70
[13]; 250 g ai/ha
  Plant response rating, Lambsquarters: 40
[14]; 31 g ai/ha
  Plant response rating, Chickweed: 25
[14]; 62 g ai/ha
  Plant response rating, Chickweed: 0
[14]; 125 g ai/ha
  Plant response rating, Chickweed: 60
[14]; 250 g ai/ha
  Plant response rating, Chickweed: 35
[15]; 31 g ai/ha
  Plant response rating, Ragweed: 0
[15]; 62 g ai/ha
  Plant response rating, Ragweed: 25
[15]; 125 g ai/ha
  Plant response rating, Ragweed: 30
[15]; 250 g ai/ha
  Plant response rating, Ragweed: 55
[16]; 31 g ai/ha
  Plant response rating, Kochia: 20
[16]; 62 g ai/ha
  Plant response rating, Kochia: 30
[16]; 125 g ai/ha
  Plant response rating, Kochia: 30
[16]; 250 g ai/ha
  Plant response rating, Kochia: 75
[17]; 31 g ai/ha
  Plant response rating, Barnyardgrass: 0
[17]; 62 g ai/ha
  Plant response rating, Barnyardgrass: 0
[17]; 125 g ai/ha
  Plant response rating, Barnyardgrass: 10
[17]; 250 g ai/ha
  Plant response rating, Barnyardgrass: 10
[18]; 31 g ai/ha
  Plant response rating, Nutsedge, Yellow: 0
[18]; 62 g ai/ha
  Plant response rating, Nutsedge, Yellow: 0
[18]; 125 g ai/ha
  Plant response rating, Nutsedge, Yellow: 0
[18]; 250 g ai/ha
  Plant response rating, Nutsedge, Yellow: 10
[19]; 31 g ai/ha
  Plant response rating, Foxtail, Giant: 0
[19]; 62 g ai/ha
  Plant response rating, Foxtail, Giant: 0
[19]; 125 g ai/ha
  Plant response rating, Foxtail, Giant: 10
[19]; 250 g ai/ha
  Plant response rating, Foxtail, Giant: 65
[20]; 31 g ai/ha
  Plant response rating, Crabgrass, Large: 0
[20]; 62 g ai/ha
  Plant response rating, Crabgrass, Large: 0
[20]; 125 g ai/ha
  Plant response rating, Crabgrass, Large: 10
[20]; 250 g ai/ha
  Plant response rating, Crabgrass, Large: 35
